In the NIST ThermoML archive (doi:10.1021/je500380x):

Experiment: mn = molality of the nth substance listed, in mol/kg
Conditions: 100 kPa, Liquid; for viscosity: Falling or rolling sphere viscometry; for mass density: Vibrating tube method; for electrical conductivity: Alternating current cell with electrodes

CCC(=O)OCCN1CCNCC1 [2-(piperazin-1-yl)ethyl propionate] + O
Conditions	electrical conductivity [S/m]	mass density [kg/m3]	viscosity [mPa·s]
308.15 K, m1 = 0.05	–	995.91	–
308.15 K, m1 = 0.0999	–	997.73	–
308.15 K, m1 = 0.1996	–	1001.37	–
308.15 K, m1 = 0.3	–	1005.16	–
308.15 K, m1 = 0.3997	–	1008.83	–
308.15 K, m1 = 0.5001	–	1012.54	–
308.15 K, m1 = 0.5992	–	1016.24	–
308.15 K, m1 = 0.6993	–	1019.8	–
308.15 K, m1 = 0.7997	–	1023.89	–
308.15 K, m1 = 0.9003	–	1027.51	–
308.15 K, m1 = 0.9988	–	1031.34	1.524
308.15 K, m1 = 1.199	–	1038.89	1.83
308.15 K, m1 = 1.402	–	1046.51	2.203
308.15 K, m1 = 1.6	–	1053.82	2.745
308.15 K, m1 = 1.802	–	1061.17	3.361
308.15 K, m1 = 1.998	–	1068.11	4.23
308.15 K, m1 = 2.2	–	1074.9	5.468
308.15 K, m1 = 2.402	–	1081.54	7.079
308.15 K, m1 = 2.6	–	1087.28	10.12
308.15 K, m1 = 2.798	–	1092.61	13.61
308.15 K, m1 = 3.002	–	1097.53	18.37
313.15 K, m1 = 0.05	0.359	994.07	0.687
313.15 K, m1 = 0.0999	0.651	995.89	0.714
313.15 K, m1 = 0.1996	1.143	999.5	0.763
313.15 K, m1 = 0.3	1.56	1003.25	0.806
313.15 K, m1 = 0.3997	1.903	1006.85	0.861
313.15 K, m1 = 0.5001	2.18	1010.55	0.928
313.15 K, m1 = 0.5992	2.43	1014.22	0.994
313.15 K, m1 = 0.6993	2.62	1017.89	1.069
313.15 K, m1 = 0.7997	2.77	1021.76	1.159
313.15 K, m1 = 0.9003	2.88	1025.33	1.258
313.15 K, m1 = 0.9988	2.96	1029.11	1.361
313.15 K, m1 = 1.199	3.02	1036.57	1.623
313.15 K, m1 = 1.402	2.99	1044.07	1.944
313.15 K, m1 = 1.6	2.84	1051.27	2.407
313.15 K, m1 = 1.802	2.65	1058.51	2.925
313.15 K, m1 = 1.998	2.4	1065.33	3.651
313.15 K, m1 = 2.2	2.13	1072.02	4.68
313.15 K, m1 = 2.402	1.843	1078.58	6.032
313.15 K, m1 = 2.6	1.53	1084.23	8.455
313.15 K, m1 = 2.798	1.215	1089.49	11.32
313.15 K, m1 = 3.002	0.987	1094.34	15.06
318.15 K, m1 = 0.05	0.392	992.04	0.632
318.15 K, m1 = 0.0999	0.711	993.83	0.658
318.15 K, m1 = 0.1996	1.25	997.43	0.7
318.15 K, m1 = 0.3	1.707	1001.16	0.737
318.15 K, m1 = 0.3997	2.08	1004.61	0.785
318.15 K, m1 = 0.5001	2.39	1008.39	0.844
318.15 K, m1 = 0.5992	2.66	1012.05	0.902
318.15 K, m1 = 0.6993	2.86	1015.67	0.969
318.15 K, m1 = 0.7997	3.04	1019.49	1.048
318.15 K, m1 = 0.9003	3.17	1023	1.133
318.15 K, m1 = 0.9988	3.26	1026.75	1.222
318.15 K, m1 = 1.199	3.34	1034.11	1.452
318.15 K, m1 = 1.402	3.31	1041.51	1.729
318.15 K, m1 = 1.6	3.19	1048.62	2.122
318.15 K, m1 = 1.802	2.96	1055.75	2.566
318.15 K, m1 = 1.998	2.7	1062.48	3.183
318.15 K, m1 = 2.2	2.4	1069.07	4.044
318.15 K, m1 = 2.402	2.11	1075.55	5.196
318.15 K, m1 = 2.6	1.77	1081.13	7.174
318.15 K, m1 = 2.798	1.411	1086.33	9.493
318.15 K, m1 = 3.002	1.17	1091.09	12.49
323.15 K, m1 = 0.05	0.426	989.83	0.587
323.15 K, m1 = 0.0999	0.772	991.62	0.61
323.15 K, m1 = 0.1996	1.36	995.19	0.645
323.15 K, m1 = 0.3	1.85	998.9	0.678
323.15 K, m1 = 0.3997	2.27	1002.44	0.722
323.15 K, m1 = 0.5001	2.61	1006.07	0.773
323.15 K, m1 = 0.5992	2.92	1009.7	0.825
323.15 K, m1 = 0.6993	3.14	1013.4	0.883
323.15 K, m1 = 0.7997	3.34	1017.08	0.953
323.15 K, m1 = 0.9003	3.48	1020.5	1.028
323.15 K, m1 = 0.9988	3.59	1024.22	1.106
323.15 K, m1 = 1.199	3.69	1031.52	1.307
323.15 K, m1 = 1.402	3.64	1038.79	1.549
323.15 K, m1 = 1.6	3.52	1045.84	1.895
323.15 K, m1 = 1.802	3.28	1052.89	2.274
323.15 K, m1 = 1.998	3	1059.54	2.797
323.15 K, m1 = 2.2	2.69	1066.05	3.527
323.15 K, m1 = 2.402	2.38	1072.45	4.525
323.15 K, m1 = 2.6	2.01	1077.96	6.112
323.15 K, m1 = 2.798	1.628	1083.11	8.069
323.15 K, m1 = 3.002	1.341	1087.78	10.49
